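How tested: cells in 96-well plates exposed to compound for 48 hours at five concentrations. GI50 marks 50% less growth.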 The source made the active and inactive calls. No stated cut-off is given here; in the data, active = GI50 up to about 1.1 µM and inactive = higher.
Experiments:
Test in all cases: NCI anticancer screen, dose series, 48 h
A549 = test system: A549
COLO 205 = test system: COLO 205
HCC 2998 = test system: HCC 2998
HL-60 = test system: HL-60
Hs-578T = test system: Hs-578T
K562 = test system: K562
M14 = test system: M14
MDA-MB-231 = test system: MDA-MB-231
MDA-N = test system: MDA-N
Malme-3M = test system: Malme-3M
OVCAR-4 = test system: OVCAR-4
OVCAR-8 = test system: OVCAR-8
RXF 393 = test system: RXF 393
SK-MEL-28 = test system: SK-MEL-28
SK-OV-3 = test system: SK-OV-3
SN12C = test system: SN12C
SNB-19 = test system: SNB-19
SR = test system: SR
TK-10 = test system: TK-10
UACC-62 = test system: UACC-62

Measured: GI50

COc1ccc(C2SC(=N)Nc3c2c(C)nn3C(=O)c2ccc(Cl)cc2)cc1OC (stereo not given)
inactive: A549 > 10 µM | COLO 205 > 10 µM | HCC 2998 > 10 µM | HL-60 > 10 µM | Hs-578T > 10 µM | K562 > 10 µM | M14 > 10 µM | MDA-MB-231 > 10 µM | MDA-N > 10 µM | Malme-3M > 10 µM | OVCAR-4 > 10 µM | OVCAR-8 > 10 µM | RXF 393 > 10 µM | SK-MEL-28 > 10 µM | SK-OV-3 > 10 µM | SN12C > 10 µM | SNB-19 > 10 µM | SR > 10 µM | TK-10 > 10 µM | UACC-62 > 10 µM

O=C1C=CC(=O)N1c1ccc2c(c1)Cc1cc(NC(=O)C(F)(F)F)ccc1-2
inactive: A549 17.9 µM | COLO 205 13.1 µM | HCC 2998 > 45.2 µM | HL-60 12.2 µM | Hs-578T 21.1 µM | K562 9.25 µM | M14 20.9 µM | MDA-MB-231 16.4 µM | MDA-N 17.1 µM | Malme-3M 19.8 µM | OVCAR-4 17.3 µM | OVCAR-8 17.7 µM | RXF 393 5.66 µM | SK-MEL-28 18.1 µM | SK-OV-3 > 100 µM | SN12C 17.1 µM | SNB-19 > 47 µM | SR 2.74 µM | TK-10 3 µM | UACC-62 16.8 µM

CC(Oc1ccccc1Cl)C(=O)NN1C(=O)CC(=O)N(c2ccc(Cl)cc2)C1=S (stereo not given)
inactive: A549 36.5 µM | COLO 205 39.7 µM | HCC 2998 50.9 µM | HL-60 3.21 µM | Hs-578T 49.8 µM | K562 13.1 µM | M14 47.5 µM | MDA-MB-231 40.4 µM | MDA-N 37.6 µM | Malme-3M > 100 µM | OVCAR-4 28.1 µM | OVCAR-8 38.8 µM | RXF 393 30 µM | SK-MEL-28 94.6 µM | SK-OV-3 59 µM | SN12C 35.2 µM | SNB-19 66.5 µM | SR 8.77 µM | TK-10 54.7 µM | UACC-62 30.3 µM

CC1(C)CC2(C)CC1CC2NC(=O)CCN1CCOCC1 (stereo not given)
inactive: A549 > 100 µM | COLO 205 > 100 µM | HCC 2998 > 100 µM | HL-60 > 100 µM | Hs-578T > 100 µM | K562 > 100 µM | M14 > 100 µM | MDA-MB-231 > 100 µM | MDA-N > 100 µM | Malme-3M > 100 µM | OVCAR-4 > 100 µM | OVCAR-8 > 100 µM | RXF 393 > 100 µM | SK-MEL-28 > 100 µM | SK-OV-3 > 100 µM | SN12C > 100 µM | SNB-19 > 100 µM | SR > 100 µM | TK-10 > 100 µM | UACC-62 > 100 µM

CCOC(=O)c1ccc(/N=c2\oc3ccc(OC)cc3cc2-c2nc3ccccc3[nH]2)cc1
inactive: A549 51.2 µM | COLO 205 73.5 µM | HCC 2998 86.5 µM | HL-60 > 100 µM | Hs-578T 79.8 µM | K562 72.8 µM | M14 65.3 µM | MDA-MB-231 53.7 µM | MDA-N 55 µM | Malme-3M > 100 µM | OVCAR-4 > 100 µM | OVCAR-8 4.21 µM | RXF 393 40.6 µM | SK-MEL-28 > 100 µM | SK-OV-3 73.8 µM | SN12C > 100 µM | SNB-19 42.9 µM | SR 59.3 µM | TK-10 > 100 µM | UACC-62 > 100 µM
